What all share (experiment): relative viability (nuclei count vs DMSO), 5 days (fraction); higher = more cells survive
Compound in experiment [1]: C1=CC2=NC=CN=C2C=C1/C=C/3\C(=O)NC(=O)S3 + CS(=O)(=O)CCNCc1ccc(-c2ccc3ncnc(Nc4ccc(OCc5cccc(F)c5)c(Cl)c4)c3c2)o1 [Lapatinib] (partner 2 µM)
The method, boiled down:
(§1)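 One day after seeding in 1536-well plates, lung cancer cell lines were dosed by pin tool. Dosing was either single-drug or a fixed anchor-drug dose plus five library-drug doses (not always all listed) in √10 steps. After 5 days, nuclei were stained in one fix-and-stain step and counted on 4× images, and relative viability is the nuclei count of treated wells over that of vehicle wells, given as the median of duplicate plates.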

Compound in the experiment “BGJ398 + Navitoclax”: CCN1CCN(c2ccc(Nc3cc(N(C)C(=O)Nc4c(Cl)c(OC)cc(OC)c4Cl)ncn3)cc2)CC1 [BGJ398] + CC1(C)CCC(c2ccc(Cl)cc2)=C(CN2CCN(c3ccc(C(=O)NS(=O)(=O)c4ccc(N[C@H](CCN5CCOCC5)CSc5ccccc5)c(S(=O)(=O)C(F)(F)F)c4)cc3)CC2)C1 [Navitoclax] (partner 0.5 µM)
The method, boiled down:
as §1

Compound in the experiment “BGJ398 + Pictilisib”: CCN1CCN(c2ccc(Nc3cc(N(C)C(=O)Nc4c(Cl)c(OC)cc(OC)c4Cl)ncn3)cc2)CC1 [BGJ398] + CS(=O)(=O)N1CCN(Cc2cc3nc(-c4cccc5[nH]ncc45)nc(N4CCOCC4)c3s2)CC1 [Pictilisib] (partner 1 µM)
The method, boiled down: as §1

Compound in the experiment “BGJ398 + Pemetrexed”: CCN1CCN(c2ccc(Nc3cc(N(C)C(=O)Nc4c(Cl)c(OC)cc(OC)c4Cl)ncn3)cc2)CC1 [BGJ398] + Nc1nc2[nH]cc(CCc3ccc(C(=O)N[C@@H](CCC(=O)O)C(=O)O)cc3)c2c(=O)[nH]1 [Pemetrexed] (partner 0.2 µM)
The essentials:
as §1

As to UMC-11, the relative viability in experiment [1] (first compound 0.02 µM) amounted to 1.02; in experiment [1] (first compound 0.06325 µM), 1.15; in experiment [1] (first compound 0.2 µM), 1.19; in experiment [1] (first compound 0.6325 µM), 1.02; in experiment [1] (first compound 2 µM), 1.37; with BGJ398 + Navitoclax (first compound 0.01 µM) it was 0.343. Moreover, the relative viability with BGJ398 + Navitoclax (first compound 0.03162 µM) was found to be 0.336; with BGJ398 + Navitoclax (first compound 0.1 µM), 0.314; with BGJ398 + Navitoclax (first compound 0.3162 µM), 0.382; with BGJ398 + Navitoclax (first compound 1 µM) it was 0.307; in the experiment with BGJ398 + Pictilisib (first compound 0.01 µM), 0.839; with BGJ398 + Pictilisib (first compound 0.03162 µM), 0.686. For the same cell line, the relative viability came out at 0.897 in the experiment with BGJ398 + Pictilisib (first compound 0.1 µM); 0.73 in the experiment with BGJ398 + Pictilisib (first compound 0.3162 µM); 0.707 in the experiment with BGJ398 + Pictilisib (first compound 1 µM); 0.799 with BGJ398 + Pemetrexed (first compound 0.01 µM); 0.747 with BGJ398 + Pemetrexed (first compound 0.03162 µM); 0.854 with BGJ398 + Pemetrexed (first compound 0.1 µM). Also, the relative viability is 0.814 with BGJ398 + Pemetrexed (first compound 0.3162 µM) and 0.758 with BGJ398 + Pemetrexed (first compound 1 µM).

The values are drawn from the supplement of paper PMC10307832.
